Experimental data from patent US20210261621A1, “Preparation of Dilipid Polymixins and Use Thereof as Antimicrobial Adjuvants” (priority 2018, published 2021).
Where two headings read alike, the source gives them in different places.

Test system: P. aeruginosa PAO1
Design: MICDrug / MICDrug in combo / MIC of adjuvant in combo: unit not given beside the values
Conditions: for MICDrug: antibiotic alone
Description: The potential of the dilipid polymyxins to serve as an adjuvant in combination with other antibiotics was evaluated against P. aeruginosa PAO1 strain (Tables 4 and 7-12). […] Checkerboard assays were performed with the dilipid polymyxins in combination with twenty-one clinically-used antibiotics. The panel included representatives from the β-lactam, carbapenem, tetracycline, aminoglycoside and fluoroquinolone antibiotic families. Other agents that are used to treat Gram-negative bacterial infection such as fosfomycin, trimethoprim and chloramphenicol were also included. […] Fractional inhibitory concentration (FIC) index was calculated for each combination to measure potential synergism between the two agents. FIC was obtained by dividing the MIC of antibiotic/adjuvant in combination by the MIC of antibiotic/adjuvant alone, while FIC index was calculated by the summation of FIC indices for the antibiotic and adjuvant. An FIC index of ≤0.5, 0.5<x≤4, or >4 denotes for synergistic, additive or antagonistic interaction, respectively. Initially, we assessed the adjuvant properties of PMBN against the panel of 21 antibiotics.
The assay was performed on 96-well plates as previously described. Briefly, the antibiotic at study was 2-fold serially diluted along the x-axis, while the adjuvant was 2-fold serially diluted along the y-axis to create a matrix in which each well consists of a combination of both at different concentrations. Overnight grown bacterial cultures were diluted in saline to 0.5 McFarland turbidity, followed by 1:50 dilution in MHB and inoculation on each well to a final concentration of approximately 5×10^5 colony forming units/mL. Wells containing only MHB with or without bacterial cells were used as positive or negative control, respectively. […] The fractional inhibitory concentration (FIC) of the antibiotic was calculated via dividing the MIC of antibiotic in the presence of adjuvant by the MIC of antibiotic alone. Similarly, the FIC of adjuvant was calculated via dividing the MIC of adjuvant in the presence of antibiotic by the MIC of adjuvant alone. The FIC index was obtained by the summation of both FIC values. The FIC index was then interpreted as synergistic, additive, or antagonistic for values of ≤0.5, 0.5<x<4, or ≥4, respectively.

[1] = antibiotic in combination with 1
[2] = antibiotic in combination with 3
[3] = antibiotic in combination with 4
[4] = antibiotic in combination with 5
[5] = antibiotic in combination with PMBN
[6] = antibiotic in combination with 2

MICDrug	MICDrug in combo [1]	MICDrug in combo [2]	MICDrug in combo [3]	MICDrug in combo [4]	MICDrug in combo [5]	MICDrug in combo [6]	Structure (SMILES)
4	(0.5)	(1)	(0.0625)	(0.5)	(0.5)	–	C[C@H]1[C@H](NC(=O)/C(=N\OC(C)(C)C(=O)O)c2csc(N)n2)C(=O)N1S(=O)(=O)O [Aztreonam, reference compound]
2	(0.25)	(1)	(0.0625)	(0.25)	(0.25)	(1)	CC(C)(O/N=C(\C(=O)N[C@@H]1C(=O)N2C(C(=O)[O-])=C(C[n+]3ccccc3)CS[C@H]12)c1csc(N)n1)C(=O)O [Ceftazidime, reference compound]
32	(2)	(4)	(4)	(8)	(2)	(4)	O=C(N[C@H](CO)[C@H](O)c1ccc([N+](=O)[O-])cc1)C(Cl)Cl [Chloramphenicol, reference compound]
1	(0.5)	(0.5)	(0.0625)	(0.5)	(0.25)	(0.125)	C[C@@H](O)[C@H]1C(=O)N2C(C(=O)O)=C(S[C@@H]3CN[C@H](CNS(N)(=O)=O)C3)[C@H](C)[C@H]12 [Doripenem, reference compound]
–	(0.5)	(1)	(4)	(0.25)	(0.25)	(0.125)	C[C@H]1c2cccc(O)c2C(=O)C2=C(O)[C@]3(O)C(=O)C(C(N)=O)=C(O)[C@@H](N(C)C)[C@@H]3[C@@H](O)[C@@H]21 [Doxycycline, reference compound]
–	(2)	(8)	(8)	(1)	(2)	(0.125)	C[C@@H]1O[C@@H]1P(=O)(O)O [Fosfomycin, reference compound]
1024	(64)	(0.25)	(0.25)	(32)	(32)	(1)	CC(=O)NC[C@H]1CN(c2ccc(N3CCOCC3)c(F)c2)C(=O)O1 [Linezolid, reference compound]
–	(0.25)	(0.5)	(0.5)	(0.5)	(0.125)	(0.0625)	C[C@@H](O)[C@H]1C(=O)N2C(C(=O)O)=C(S[C@@H]3CN[C@H](C(=O)N(C)C)C3)[C@H](C)[C@H]12 [Meropenem, reference compound]
16	(1)	(2)	(4)	(2)	(0.5)	(4)	CN(C)c1ccc(O)c2c1C[C@H]1C[C@H]3[C@H](N(C)C)C(O)=C(C(N)=O)C(=O)[C@@]3(O)C(O)=C1C2=O [Minocycline, reference compound]
1	(0.125)	(0.5)	(1)	(0.25)	(0.125)	(1)	COc1c(N2C[C@@H]3CCCN[C@@H]3C2)c(F)cc2c(=O)c(C(=O)O)cn(C3CC3)c12 [Moxifloxacin, reference compound]
512	(16)	(0.5)	(2)	(128)	(4)	(8)	CO[C@@H]1[C@@H](OC(N)=O)[C@@H](O)[C@H](Oc2ccc3c(O)c(NC(=O)c4ccc(O)c(CC=C(C)C)c4)c(=O)oc3c2C)OC1(C)C [Novobiocin, reference compound]
